Assays:
Type in all cases: physicochemical
[1] = Storage of amorphous anhydrous form at ambient conditions
Experimental: . The amorphous anhydrous form of (S)-CSA salt of S-ketamine was also obtained (in a mixture with the monohdrate form) by slurrying the crystalline monohydrate form of (S)-CSA salt of S-ketamine in 2-methyl THF or isopropyl acetate at about 80° C. for about 4 days.

[2] = Approximate solubility by stepwise dilution of a suspension; details: thermodynamic from solid
Experimental: The approximate solubility of the monohydrate crystalline form of the (S)-CSA salt of S-ketamine was measured by stepwise dilution of a suspension of about 10 mg of the sample in 0.05 mL solvent. Table 4 below lists the approximate solubility, denoted “S”. If a sample was not dissolved by addition of a total of 10-12 mL of solvent, the solubility is indicated as <1 mg/mL in the Table 4, below.

[3] = Solubility in select solvents after 24 hours, filtrate analyzed by HPLC
Experimental: Additionally, the solubility of the monohydrate crystalline form of the (S)-CSA salt of S-ketamine in select solvents was determined as follows: 21 g of (S)-CSA salt of S- ketamine was dissolved in 100 mL of solvent (as listed in Table 5 below). After 24 hours, the solutions were analyzed visually. If the compound was completely dissolved, solubility was above 20 g/100 mL. If the compound was not completely dissolved, any remaining precipitate was filtered off, the filtrate was diluted 400-fold with HPLC dilution solvent (or acetonitrile/HPLC dilution solvent) and analyzed by HPLC, with results as listed in Table 5, below.

[4] = Dynamic Vapor Sorption (DVS) measurement
Experimental: Dynamic Vapor Sorption (DVS) measurements (where completed) were measured using a Projekt Messtechnik Sorptions Prufsystem SPS 11 or Surface Measurement Systems DVS-1 scanning (cycling relative humidity and hodling the sample at a set relative humidity) as follow: (a) holding sample at 50% RH for 2 hours; (b) 50% RH to 0% RH (5%/h); holding at 0% RH for 5 hours; (c) 0% RH to 95% RH (5%/h); holding at 95% RH for 5 hours; and (d) 95% RH to 50% RH (5%/h); holding at 50% RH for 2 hours.

TG-FTIR measurement = details: 25° C. to 300° C., 10K/min, nitrogen
Experimental: ThermoGravimetric-Fourier Transform InfraRed (TG-FTIR) measurements, where carried out were measures using a Netzsche Thermo-Microbalance TG209 with Bruker FT-IR Spectrometer Vector 22, with aluminum crucible with microhoel, nitrogen atmosphere and scanning form 25° C. to 300° C. at a heating rate of 10K/min.

## CC1(C)[C@@H]2CC[C@@]1(CS(=O)(=O)O)C(=O)C2.CN[C@]1(c2ccccc2Cl)CCCCC1=O
[1]; amorphous, anhydrous form
  Hygroscopicity: hygroscopic
[1]; storage at ambient conditions
  Form stability on storage: rapidly converts to the monohydrate form

## CN[C@]1(c2ccccc2Cl)CCCCC1=O [(S)-2-(2-chlorophenyl)-2-(methylammonium)cyclohexanone(+)-camphorsulfonate monohydrate]
[2]; 10:1 acetone:water, organic solvent or mixture, solvent: 10:1 aectobne:water
  solubility: 20 to 24 mg/mL
[2]; aqueous with cosolvent or surfactant or cyclodextrin, solvent: 1:1 2-propanol:water
  solubility: 93 to 189 mg/mL
[2]; aqueous with cosolvent or surfactant or cyclodextrin, solvent: 1:1 acetone:water
  solubility: 58 to 77 mg/mL
[2]; organic solvent or mixture, solvent: 1,4-dioxane
  solubility: 5 to 6 mg/mL
[2]; organic solvent or mixture, solvent: 1:1 2-propanol:isopropyl acetate
  solubility: 10 to 11 mg/mL
[2]; organic solvent or mixture, solvent: 2-methyl THF saturated with water
  solubility: 6 to 8 mg/mL
[2]; organic solvent or mixture, solvent: 2-methyl-THF
  solubility: 5 to 7 mg/mL
[2]; organic solvent or mixture, solvent: 2-propanol
  solubility: 22 to 25 mg/mL
[2]; organic solvent or mixture, solvent: 10:1 2-propanol:water
  solubility: 24 to 28 mg/mL
[2]; organic solvent or mixture, solvent: DCM
  solubility: 67 to 101 mg/mL
[2]; organic solvent or mixture, solvent: DMF
  solubility: 91 to 185 mg/mL
[2]; organic solvent or mixture, solvent: DMSO
  solubility: 106 to 212 mg/mL
[2]; organic solvent or mixture, solvent: TBME
  solubility: < 1 mg/mL
[2]; organic solvent or mixture, solvent: THF
  solubility: 5 to 7 mg/mL
[2]; organic solvent or mixture, solvent: acetone
  solubility: 5 to 6 mg/mL
[2]; organic solvent or mixture, solvent: acetonitrile
  solubility: 22 to 24 mg/mL
[2]; organic solvent or mixture, solvent: anisole
  solubility: < 1 mg/mL
[2]; organic solvent or mixture, solvent: ethanol
  solubility: 67 to 100 mg/mL
[2]; organic solvent or mixture, solvent: ethyl acetate
  solubility: < 1 mg/mL
[2]; organic solvent or mixture, solvent: heptane
  solubility: < 1 mg/mL
[2]; organic solvent or mixture, solvent: isopropyl acetate
  solubility: < 1 mg/mL
[2]; organic solvent or mixture, solvent: methanol
  solubility: > 226 mg/mL
[2]; organic solvent or mixture, solvent: toluene
  solubility: < 1 mg/mL
[2]; solvent: water
  solubility: 20 to 24 mg/mL
[3]; solvent: 2-propanol
  Solubility at 23.6° C.: 7.275 g/100 mL
[3]; solvent: N,N-dimethylacetamide
  Solubility at 23.6° C.: 18.200 g/100 mL
[3]; solvent: N,N-dimethylformamide
  Solubility at 23.6° C.: 18.267 g/100 mL
[3]; solvent: acetic acid
  Solubility at 23.6° C.: 18.209 g/100 mL
[3]; solvent: acetone (2-propanone)
  Solubility at 23.6° C.: 0.578 g/100 mL
[3]; solvent: dichloromethane/methanol (50/50 v/v)
  Solubility at 23.6° C.: 18.589 g/100 mL
[3]; solvent: ethanol
  Solubility at 23.6° C.: 18.297 g/100 mL
[3]; solvent: methanol
  Solubility at 23.6° C.: 18.457 g/100 mL
[3]; thermodynamic from solid, solvent: demineralized water, 23.6° C.
  solubility thermodynamic at 24 h: 53.4 mg/mL
[4]; cycling 0% RH to 95% RH
  Hygroscopicity: no hygroscopicity
[4]; elevated relative humidity
  Physical stability at elevated relative humidity: physical stability
TG-FTIR measurement
  Chemical decomposition temperature: above 230 °C

— US10815196B2, “(S)-CSA salt of S-ketamine, (R)-CSA salt of S-ketamine and processes for the preparation of S-ketamine” (Janssen Pharmaceutica NV, priority 2015, dated 2020)
